# Experimental data reported in patent US20090311246A1, “Method of Enhancing Remyelination in Demyelinating Diseases of the Central Nervous System” (priority 2008, published 2009).
# How the values were obtained:
# [1] = test system: SFV-infected TCR γδ-KO and WT mice; test: Clinical scores of SFV-infected, E2 137-151 immunized TCR γδ-KO and WT mice; assay type: in vivo; details: 0.5 mg/injection (25 mg/kg) sc in IFA, scale 0-VI
# Description: FIG. 5 Comparison of Clinical Scores (±SEM) of SFV-infected E2 137-151 peptide-immunized, and non-immunized TCR γδ-KO and WT mice, on different days post infection. Data shown is the average of two experiments with a total of 15 WT, 15 KO mice, and 10 immunized KO mice (only 5-10 KO mice could be obtained at each time point). SFV-infected KO mice were immunized subcutaneously with E2 137-151 (0.5 mg/injection or 25 mg/kg, based on the average weight of 20 g/mouse) in IFA, one day after SFV-infection. Additional inoculations of E2 137-151/IFA were performed on days 5, 15, and 20. Mice were sacrificed on days 7, 15, 21, and 35 pi. Clinical scores of sacrificed and dead animals have been considered in average calculation until the end of experiments on day 35. […] Data from E2-137-immunized WT mice is not shown (p=NS).
# Method—Five-week old C57B16 (B6) WT and KO mice (Jackson Laboratories, Bar Harbor, Mass.) were infected with SFV, and KO mice were immunized subcutaneously with E2-137-151 (0.5 mg/injection or 25 mg/kg, based on the average weight of 20 g/mouse) in IFA, one day after SFV-infection. Additional inoculations of E2 137-151/IFA were performed on days 5 and 15 for KO mice only. Animals were observed daily for clinical manifestations of disease and were scored on a scale of 0-VI. 0=no abnormality; I-mild hind limb weakness (some difficulty righting themselves when turned on their back); II=moderate hind limb weakness, sometimes associated with floppy tail; III=weakness of hind limbs accompanied by some forelimb weakness, sometimes more marked on one limb or one side, but not complete paralysis; IV=hind limb paresis accompanied by mild forelimb weakness; V=paralysis of hind limbs, associated with moderate forelimb weakness; and VI=quadriplegia, moribund.
# [2] = test system: sera from SFV-infected WT and γδ KO mice; test: ELISA of sera from SFV-infected WT and γδ KO mice against SFV, E2 peptides, PPD and rMOG; assay type: binding
# [3] = test system: Rabbit Anti-SFV polyclonal antibody; test: Indirect ELISA of rabbit anti-SFV polyclonal IgG against viral and myelin antigens; assay type: binding
# Description: The total IgG fraction was commercially prepared (Strategic Biosolutions, Ramona, Calif.) from pooled sera of 3 rabbits immunized once with UV-inactivated SFV (A774 strain) emulsified in CFA and boosted 3 times with antigen in IFA at weeks 3, 5, and 7. The IgG fraction of the pooled antisera was purified by ion-exchange chromatography and contained 8.7 mg IgG/ml of PBS. Antibody activities to SFV and peptides of SFV, to E2, and to recombinant ® MOG and its peptides were confirmed by ELISA. Normal rabbit IgG, isolated from pooled normal rabbit sera by ion-exchange chromatography (Signa Chemical Co., St. Louis, Mo.), was dissolved in saline. Protein concentration was determined by the Bradford assay (Sigma), using normal rabbit IgG as the standard. The IgG solutions were diluted to 3 mg protein/ml in saline and sterilized by passage through a 0.22 μm filter (Millipore Corp., Bedford, Mass.).
# To measure the antibody response of both WT and γδ KO mice against SFV and two of the peptides of the SFV envelope protein, E2, an indirect ELISA was performed. Sera were pooled from 4-6 SFV-infected WT, and 3 KO, mice on days 0, 7, 14, 21 and 35 pi. Briefly, Immunolon 2HB 96 well microtiter plates (VWR, Bridge Port, N.J.) were coated with 1 μg/well of each antigen in 100 μl/well carbonate buffer overnight at room temperature. After washing, the plates were blocked and serum samples were added. […] After washing, biotinylated goat anti-mouse Igs (BD Pharmingen, Torreyana, Calif.), Strepavidin conjugated to Horse Radish Peroxidase (Vector Laboratories, Burlingame, Calif.), and OPD substrate (Sigma, St. Louis, Mo.) were used, as previously described (4, 9). […] Values were considered to be positive when they were >0.3 OD units and exceeded the mean value plus three standard deviations for antibody response on day 0 pi of mice of the same strain.
# The polyclonal rabbit anti SFV antibody was commercially prepared (Strategic Biosolutions, Ramona, Calif.) from pooled sera of 3 rabbits, immunized once with UV-inactivated SFV (A774 strain) emulsified in CFA and boosted 3 times with antigen in IFA at weeks 3, 5, and 7.
smiles,measurement,setting,value
CC[C@H](C)[C@H](NC(=O)[C@H](CCC(=O)O)NC(=O)[C@H](CCCCN)NC(=O)CNC(=O)[C@H](Cc1ccc(O)cc1)NC(=O)[C@H](Cc1c[nH]cn1)NC(=O)[C@@H]1CCCN1C(=O)[C@H](CCCNC(=N)N)NC(=O)[C@@H](NC(=O)[C@@H](NC(=O)[C@H](Cc1ccccc1)NC(=O)[C@H](CCCCN)NC(=O)[C@H](CCC(=O)O)NC(=O)[C@H](CCCNC(=N)N)NC(=O)CN)[C@@H](C)O)[C@@H](C)CC)C(=O)O [E2 137-151],"Average clinical score / severity of disease, immunized KO compared with non-immunized KO mice","[1]; listed as E2 137-151 peptide, 25 mg/kg",significantly suppressed
same,"Average clinical score / severity of disease, immunized KO compared with non-immunized KO mice","[1]; listed as E2-137, 25 mg/kg",nonimmunized <E2-137 immunized KO mice
same,"Average clinical score / severity of disease, immunized KO compared with non-immunized KO mice","[1]; listed as E2-137-151, 25 mg/kg",decreased significantly
same,"Net change in the level of antibody, D0 WT","[2]; WT mice, day 0",0 nano gr
same,"Net change in the level of antibody, D7 WT","[2]; WT mice, day 7 pi, ± SD",72 ± 28 nano gr
same,"Net change in the level of antibody, D14 WT","[2]; WT mice, day 14 pi, ± SD",565 ± 33 nano gr
same,"Net change in the level of antibody, D21 WT","[2]; WT mice, day 21 pi, ± SD",1196 ± 61 nano gr
same,"Net change in the level of antibody, D35 WT","[2]; WT mice, day 35 pi, ± SD",951 ± 50 nano gr
same,Reactivity of sera from SFV-infected WT mice,"[2]; WT, sera 1:80, day 7 pi increasing to day 35",reacted strongly
same,"Net change in the level of antibody, D0 KO","[2]; γδ KO mice, day 0",0 nano gr
same,"Net change in the level of antibody, D7 KO","[2]; γδ KO mice, day 7 pi, ± SD",39 ± 25 nano gr
same,"Net change in the level of antibody, D14 KO","[2]; γδ KO mice, day 14 pi, ± SD",36 ± 19 nano gr
same,"Net change in the level of antibody, D21 KO","[2]; γδ KO mice, day 21 pi, ± SD",46.5 ± 19 nano gr
same,"Net change in the level of antibody, D35 KO","[2]; γδ KO mice, day 35 pi, ± SD",41 ± 28 nano gr
same,Reactivity of sera from SFV-infected γδ KO mice,"[2]; γδ KO, sera 1:80",marginally reacted
same,"Rabbit Anti-SFV Ab, OD at 490 nm","[3]; 10^−2 diluted, indirect ELISA",1.107 OD
same,Immunoreactivity of IgG fraction of serum from rabbits immunized with UV-inactivated SFV,[3]; ELISA,strong immunoreactivity
same,OD Difference,[3]; Rabbit Anti-SFV Ab minus Normal Rabbit Serum,0.934 OD
